Measured values reported in publication PMC7838034 (Acta Pharmaceutica Sinica. B, 2020).

Tests used:
[1] = tested on: BRD4 and PARP1 in MCF-7 tumor tissues; experiment: IHC staining of tumor tissue; assay type: in vivo, nude mice (BALB/c); conditions: 19d treatment groups
[2] = tested on: MDA-MB-468 tumor xenograft; experiment: MDA-MB-468 breast cancer xenograft model
[3] = biological target: recombinant BRD4(BD1 + BD2) (Homo sapiens, UniProt O60885); experiment: BRD4 inhibition assay; assay type: binding; conditions: for inhibition at 1 µM: read-out: Inhibition rate BRD4, 1 μmol/L; for inhibition at 1 µM / inhibition at 10 µM: tested in duplicate, average; for inhibition at 10 µM: read-out: Inhibition rate BRD4, 10 μmol/L
[4] = tested on: protein expression in MDA-MB-468 cells; experiment: Western blot analysis; assay type: cell-based, human
[5] = biological target: PARP1 (Homo sapiens, UniProt P09874); experiment: PARP1 inhibition assay; assay type: biochemical; conditions: tested in duplicate, average; for inhibition at 1 µM: read-out: Inhibition rate PARP1, 1 μmol/L; for inhibition at 10 µM: read-out: Inhibition rate PARP1, 10 μmol/L
[6] = tested on: MDA-MB-468 cells; experiment: Colony formation assay; assay type: cell-based, human; conditions: compared with DMSO-treated control
[7] = tested on: BRD4 and PARP1 in MDA-MB-468 tumor tissues; experiment: IHC staining of tumor tissue; assay type: in vivo, nude mice (BALB/c); conditions: 40 mg/kg, compared with control group
[8] = tested on: MCF-7 tumor xenograft; experiment: MCF-7 breast cancer xenograft model
[9] = Pharmacokinetic study, oral; assay type: in vivo, Sprague–Dawley rats
[10] = tested on: MDA-MB-468 cells; experiment: Annexin V-FITC/PI apoptosis assay; assay type: cell-based, human; conditions: 1, 3.3 and 10 μmol/L
[11] = HE staining of major organs of xenograft mice; assay type: in vivo, nude mice (BALB/c); conditions: after 19d treatment, all groups of both xenograft models
[12] = tested on: MCF-7 cells; experiment: Annexin V-FITC/PI apoptosis assay; assay type: cell-based, human
[13] = tested on: MDA-MB-468 cells; experiment: Cell viability assay; assay type: cell-based, human; conditions: Homo sapiens, MDA-MB-468, 24 h, read-out: Anti-proliferative activity (IC50)
[14] = male, Sprague-Dawley, rat, plasma, po, 10 mg/kg

PARP1, sequence (P09874 whole entry): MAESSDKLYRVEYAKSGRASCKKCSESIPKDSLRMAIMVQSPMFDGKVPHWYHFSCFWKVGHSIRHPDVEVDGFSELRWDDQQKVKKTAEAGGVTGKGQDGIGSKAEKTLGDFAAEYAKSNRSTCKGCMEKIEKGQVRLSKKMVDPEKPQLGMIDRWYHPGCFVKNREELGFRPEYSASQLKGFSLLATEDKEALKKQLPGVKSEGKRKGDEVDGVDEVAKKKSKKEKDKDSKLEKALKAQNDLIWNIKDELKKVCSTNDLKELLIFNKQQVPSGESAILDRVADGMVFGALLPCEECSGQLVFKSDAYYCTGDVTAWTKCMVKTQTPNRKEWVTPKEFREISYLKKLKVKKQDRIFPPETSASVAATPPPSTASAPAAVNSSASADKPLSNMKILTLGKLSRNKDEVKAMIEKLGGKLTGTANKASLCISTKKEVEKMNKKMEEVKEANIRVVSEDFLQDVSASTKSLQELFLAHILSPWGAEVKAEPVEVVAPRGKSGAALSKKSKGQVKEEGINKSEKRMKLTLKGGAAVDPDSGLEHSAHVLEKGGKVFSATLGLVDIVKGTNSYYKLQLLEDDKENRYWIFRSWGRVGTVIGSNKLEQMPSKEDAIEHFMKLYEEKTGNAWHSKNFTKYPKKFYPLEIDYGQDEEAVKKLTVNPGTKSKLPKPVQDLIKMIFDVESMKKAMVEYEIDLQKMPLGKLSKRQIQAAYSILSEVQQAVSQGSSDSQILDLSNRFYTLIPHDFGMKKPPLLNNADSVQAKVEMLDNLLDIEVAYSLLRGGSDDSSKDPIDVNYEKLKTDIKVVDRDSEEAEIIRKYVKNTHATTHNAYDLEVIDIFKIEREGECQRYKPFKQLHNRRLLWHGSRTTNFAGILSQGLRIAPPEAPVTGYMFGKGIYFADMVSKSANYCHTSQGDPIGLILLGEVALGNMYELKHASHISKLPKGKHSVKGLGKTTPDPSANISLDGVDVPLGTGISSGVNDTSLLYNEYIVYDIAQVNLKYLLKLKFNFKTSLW

For `COc1cc(OC)c2c(=O)[nH]c(-c3ccc(OCCOc4ccccc4C(N)=O)cc3)nc2c1` [Compound 19d, 2-(2-(4-(5,7-Dimethoxy-4-oxo-3,4-dihydroquinazolin-2-yl)phenoxy)ethoxy)benzamide], the “expression levels of BRD4 and PARP1 in tumor tissues” value [1] was “slightly downregulated”, the “tumor growth inhibition (TGI)” value ([2]; 80 mg/kg oral, once a day) was 55.3% and the “body weight change and death during treatment” value ([2]; 20, 40 and 80 mg/kg oral) was “slight body weight change and no death of mice”. For the same molecule, the “improved efficacy against BRD4 than RVX-208” value ([3]; ratio of BRD4 IC50 values) was over 30 fold, the inhibition at 1 µM [3] was 69% and the inhibition at 10 µM [3] was 92%. The PAR expression ([4]; 2 μmol/L, 24 h) was “effective downregulation”, the c-Myc expression ([4]; 2 μmol/L, 24 h) was “higher c-Myc inhibition efficiency than RVX-208” and the “BAX and active form of caspase-3 expression” value ([4]; 1, 3.3 and 10 μmol/L) was “increased”. For the same molecule, the BCL-2 expression ([4]; 1, 3.3 and 10 μmol/L) was “remarkably downregulated”, the “expression of c-Myc and PAR” value ([4]; 1, 3.3 and 10 μmol/L, 24 h) was “decreased the expression of c-Myc and PAR in a dose-dependent manner” and the inhibition at 1 µM [5] was 37%. For the same molecule, the inhibition at 10 µM [5] was 88%, the colony counts [6] was “remarkably decreased the colony counts” and the “expression levels of BRD4 and PARP1 in tumor tissues” value [7] was “effectively suppressed”. For the same molecule, the TGI rate ([8]; 80 mg/kg oral, once a day) was 48.3%, the “toxicity (body weight) of the dosages used” value ([8]; 20, 40 and 80 mg/kg oral) was “no apparent toxicity” and the “AUC0−∞” value ([9]; SD rats, p.o. 10 mg/kg, n = 3, mean ± SD) was 0.14472 ± 0.02551 µg·h/mL. For the same molecule, the AUC(0-t) [9, 14] was 0.114 ± 0.0158 µg·h/mL, the MRT inf [9, 14] was 5.35 ± 0.44 h and the apoptosis induction [10] was “induced apoptosis in a dose-dependent manner”. For the same molecule, the “histological changes in major organs (HE)” value [11] was “no visible histological changed”, the apoptosis induction [12] was “no significant changes” and the IC50 [13] was 3.4 ± 1.1 µM.

Work on `COc1cc(OC)c2c(=O)[nH]c(-c3cc(C)c(OCCOc4ccccc4C(N)=O)c(C)c3)nc2c1` [Compound 19f, 2-(2-(4-(5,7-Dimethoxy-4-oxo-3,4-dihydroquinazolin-2-yl)-2,6-dimethylphenoxy)ethoxy)benzamide] yielded an inhibition at 1 µM [3] of 11%, an inhibition at 10 µM [3] of 74% and an inhibition at 1 µM [5] of 40%. It also gave an inhibition at 10 µM [5] of 79% and an IC50 [13] of 8.4 ± 1.3 µM.

Molecule `COc1cc(OC)c2c(=O)[nH]c(-c3cc(OC)c(OCCOc4ccccc4C(N)=O)c(OC)c3)nc2c1` [Compound 19g, 2-(2-(4-(5,7-Dimethoxy-4-oxo-3,4-dihydroquinazolin-2-yl)-2,6-dimethoxyphenoxy)ethoxy)benzamide] has an inhibition at 1 µM [3] of 15%, an inhibition at 10 µM [3] of 72% and an inhibition at 1 µM [5] of 25%. The inhibition at 10 µM [5] was 70% and the IC50 [13] was 5.7 ± 2.1 µM.

Work on `COc1cc(OC)c2c(=O)[nH]c(-c3ccc(OCCOc4ccccc4C(N)=O)c(F)c3)nc2c1` [Compound 19h, 2-(2-(4-(5,7-Dimethoxy-4-oxo-3,4-dihydroquinazolin-2-yl)-2-fluorophenoxy)ethoxy)benzamide] yielded an inhibition at 1 µM [3] of 12%, an inhibition at 10 µM [3] of 62% and an inhibition at 1 µM [5] of 31%. For the same molecule, the inhibition at 10 µM [5] was 65% and the IC50 [13] was 11.8 ± 3.4 µM.

In the case of `COc1cc(OC)c2c(=O)[nH]c(-c3cc(C)c(OCCOn4nnc5ccccc54)c(C)c3)nc2c1` [Compound 19i, 2-(4-(2-((1H-Benzo[d][1,2,3]triazol-1-yl)oxy)ethoxy)-3,5-dimethylphenyl)-5,7-dimethoxyquinazolin-4(3H)-one], the inhibition at 1 µM [3] is reported as 18%, the inhibition at 10 µM [3] is reported as 61% and the inhibition at 1 µM [5] is reported as 11%. It also gave an inhibition at 10 µM [5] of 18% and an IC50 [13] of over 30 µM.

`COc1cc(OC)c2c(=O)[nH]c(-c3cc(OC)c(OCCOn4nnc5ccccc54)c(OC)c3)nc2c1` [Compound 19j, 2-(4-(2-((1H-Benzo[d][1,2,3]triazol-1-yl)oxy)ethoxy)-3,5-dimethoxyphenyl)-5,7-dimethoxyquinazolin-4(3H)-one] showed an inhibition at 1 µM [3] of 12%, an inhibition at 10 µM [3] of 64% and an inhibition at 1 µM [5] of 6%. It also gave an inhibition at 10 µM [5] of 18% and an IC50 [13] of over 30 µM.

For `COc1cc(OC)c2c(=O)[nH]c(-c3ccc(OCCOn4nnc5ccccc54)cc3)nc2c1` [Compound 19k, 2-(4-(2-((1H-Benzo[d][1,2,3]triazol-1-yl)oxy)ethoxy)phenyl)-5,7-dimethoxyquinazolin-4(3H)-one], the inhibition at 1 µM [3] was 13%, the inhibition at 10 µM [3] was 83% and the inhibition at 1 µM [5] was 7%. The inhibition at 10 µM [5] was 29% and the IC50 [13] was 22.9 ± 2.4 µM.

For `COc1cc(OC)c2c(=O)[nH]c(-c3ccc(OCCOn4nnc5ccccc54)c(F)c3)nc2c1` [Compound 19l, 2-(4-(2-((1H-Benzo[d][1,2,3]triazol-1-yl)oxy)ethoxy)-3-fluorophenyl)-5,7-dimethoxyquinazolin-4(3H)-one], the inhibition at 1 µM [3] was 29%, the inhibition at 10 µM [3] was 80% and the inhibition at 1 µM [5] was 1%. It also gave an inhibition at 10 µM [5] of 14% and an IC50 [13] of 23.7 ± 3.3 µM.

Work on `COc1cc(OC)c2c(=O)[nH]c(-c3cc(C)c(OCCOc4ccc5cn[nH]c5c4)c(C)c3)nc2c1` [Compound 19m, 2-(4-(2-((1H-Indazol-6-yl)oxy)ethoxy)-3,5-dimethylphenyl)-5,7-dimethoxyquinazolin-4(3H)-one] yielded an inhibition at 1 µM [3] of 15%, an inhibition at 10 µM [3] of 46% and an inhibition at 1 µM [5] of 7%. The inhibition at 10 µM [5] was 11% and the IC50 [13] was over 30 µM.

Work on `COc1cc(OC)c2c(=O)[nH]c(-c3cc(OC)c(OCCOc4ccc5cn[nH]c5c4)c(OC)c3)nc2c1` [Compound 19n, 2-(4-(2-((1H-Indazol-6-yl)oxy)ethoxy)-3,5-dimethoxyphenyl)-5,7-dimethoxyquinazolin-4(3H)-one] yielded an inhibition at 1 µM [3] of 14%, an inhibition at 10 µM [3] of 45% and an inhibition at 1 µM [5] of 9%. The inhibition at 10 µM [5] was 16% and the IC50 [13] was over 30 µM.

`COc1cc(OC)c2c(=O)[nH]c(-c3ccc(OCCOc4ccc5cn[nH]c5c4)cc3)nc2c1` [Compound 19o, 2-(4-(2-((1H-Indazol-6-yl)oxy)ethoxy)phenyl)-5,7-dimethoxyquinazolin-4(3H)-one] gave an inhibition at 1 µM [3] of 3%, an inhibition at 10 µM [3] of 56% and an inhibition at 1 µM [5] of 3%. For the same molecule, the inhibition at 10 µM [5] was 13% and the IC50 [13] was over 30 µM.

Molecule `COc1cc(OC)c2c(=O)[nH]c(-c3ccc(OCCOn4nnc5ccccc54)c(Cl)c3)nc2c1` [Compound 19p, 2-(4-(2-((1H-Benzo[d][1,2,3]triazol-1-yl)oxy)ethoxy)-3-chlorophenyl)-5,7-dimethoxyquinazolin-4(3H)-one] has an inhibition at 1 µM [3] of 3%, an inhibition at 10 µM [3] of 44% and an inhibition at 1 µM [5] of 3%. The inhibition at 10 µM [5] was 6% and the IC50 [13] was over 30 µM.

Work on `COc1cc(OC)c2c(=O)[nH]c(-c3cc(F)ccc3OCCOc3ccccc3C(N)=O)nc2c1` [Compound 19s, 2-(2-(2-(5,7-Dimethoxy-4-oxo-3,4-dihydroquinazolin-2-yl)-4-fluorophenoxy)ethoxy)benzamide] yielded an inhibition at 1 µM [3] of 8%, an inhibition at 10 µM [3] of 74% and an inhibition at 1 µM [5] of 12%. For the same molecule, the inhibition at 10 µM [5] was 65% and the IC50 [13] was 8.7 ± 5.2 µM.

With `COc1cc(OC)c2c(=O)[nH]c(-c3ccc(OCCOc4ccc5nc[nH]c(=O)c5c4)cc3)nc2c1` [Compound 19t, 5,7-Dimethoxy-2-(4-(2-((4-oxo-3,4-dihydroquinazolin-6-yl)oxy)ethoxy)phenyl)quinazolin-4(3H)-one] the inhibition at 1 µM [3] was 9%, the inhibition at 10 µM [3] was 67% and the inhibition at 1 µM [5] was 1%. It also gave an inhibition at 10 µM [5] of 25% and an IC50 [13] of over 30 µM.

Molecule `COc1cc(OC)c2c(=O)[nH]c(-c3ccc(OCCOc4ccncc4C(N)=O)cc3)nc2c1` [Compound 19u, 4-(2-(4-(5,7-Dimethoxy-4-oxo-3,4-dihydroquinazolin-2-yl)phenoxy)ethoxy)nicotinamide] has an inhibition at 1 µM [3] of 6%, an inhibition at 10 µM [3] of 77% and an inhibition at 1 µM [5] of 36%. For the same molecule, the inhibition at 10 µM [5] was 81% and the IC50 [13] was 6.7 ± 2.4 µM.

`COc1cc(OC)c2c(=O)[nH]c(-c3cc(C)c(OCCO)c(C)c3)nc2c1` [RVX-208, reference compound] gave an inhibition at 1 µM [3] of 20%, an inhibition at 10 µM [3] of 60% and an inhibition at 1 µM [5] of 1%. The inhibition at 10 µM [5] was 4% and the IC50 [13] was over 30 µM.
